The target of one experiment is T1, MCR-1 (Homo sapiens, UniProt Q01726).
T1 construct: expressed in transfected cells; host or cells: HEK 293
In words: Melanocortin receptor binding assay, competition with 125I-HP 467, HEK 293 cells expressing hMCR-1. Conditions: for effectiveness as MC receptor ligand: binding to MC receptors, Table 1; for IC50: competition with 125I-HP 467, HEK 293 cells expressing MCR-1, read-out: MC-1 IC50. Put shortly: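 Test compounds compete on intact HEK 293 cells carrying hMCR-1 (2×10^4 per tube) or hMCR-4 (4×10^3 per tube), suspended in PBS, 10% calf serum, 1 mM CaCl2.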

For the next experiment, the system named is IL-10. In words: Increasing levels of IL-10 in mice (plasma ELISA). The experiment is classed as in vivo. Conditions: mouse plasma, 90 or 105 minutes; for % IL-10 Induction, IP 30: 30 μg per mouse; for % IL-10 Induction, IP 300 / % IL-10 Induction, Oral 300: 300 μg per mouse; for % IL-10 Induction, Oral 600: 600 μg per mouse. Here is the method: Isoquinoline compounds were administered intraperitoneally to mice in doses of 30, 100 or 300 μg/mouse or orally in doses of 300 or 600 μg/mouse. Levels of IL-10 were measured 90 or 105 minutes after administration as indicated. Samples were collected and diluted, when appropriate, as described in Example VI. A 100 μl sample of plasma was assayed by ELISA for IL-10. Briefly, ELISA plates were coated with rat anti-mouse IL-10 monoclonal antibody (Pharmingen; San Diego Calif.). Samples or known concentrations of IL-10 were added to the coated plates and incubated for 2 hr at 37° C. Plates were washed and incubated with biotinylated rat anti-mouse IL-10 (R&D Systems; Minneapolis Minn.) for 1 hr at 37° C. Plates were washed and incubated with streptavidin-HRP 30 min at 37° C., and HRP activity was detected with hydrogen peroxide and TMB using standard immunoassay procedures.
In general terms: ELISA stands for enzyme-linked immunosorbent assay.

T1 sequence (Q01726 whole entry): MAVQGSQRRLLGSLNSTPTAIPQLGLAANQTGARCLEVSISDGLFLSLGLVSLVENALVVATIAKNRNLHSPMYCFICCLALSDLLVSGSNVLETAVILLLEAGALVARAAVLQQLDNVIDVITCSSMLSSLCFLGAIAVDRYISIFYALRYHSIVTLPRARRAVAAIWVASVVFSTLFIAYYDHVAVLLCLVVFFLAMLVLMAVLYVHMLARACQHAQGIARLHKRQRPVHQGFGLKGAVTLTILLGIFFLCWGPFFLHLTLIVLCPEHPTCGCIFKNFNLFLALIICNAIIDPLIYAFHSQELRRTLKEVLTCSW

For the molecule `CCCCNc1ccc(C2C(CNCc3ccccc3O)c3ccccc3CN2CCCCC(CN)NC)cc1` (stereo not drawn) [TRG 2409-2], at MCR-1, the “effectiveness as MC receptor ligand” value is on record as “particularly effective MC receptor ligands” and the IC50 stood at 220 nM. In the experiment with IL-10, the “% IL-10 Induction, IP 30” value is −30 ± 11%; the “% IL-10 Induction, IP 300” value came to 157 ± 57 %; the “% IL-10 Induction, Oral 300” value came to 39 ± 15%; the “% IL-10 Induction, Oral 600” value amounted to 82 ± 19 %.
For the molecule `CCCCNc1ccc(C2C(CNC3CCCCC3)c3ccccc3CN2CCCCC(CN)NC)cc1` (stereo not drawn) [TRG 2409-14], on MCR-1, the “effectiveness as MC receptor ligand” value is “particularly effective MC receptor ligands” and the IC50 is 100 nM. For the same molecule, in the experiment on IL-10, the “% IL-10 Induction, IP 30” value is −27 ± 8%; the “% IL-10 Induction, IP 300” value is on record as 150 ± 50 %; the “% IL-10 Induction, Oral 300” value is recorded as 79 ± 29%; the “% IL-10 Induction, Oral 600” value was found to be 193 ± 50 %.

What is called IC50 is the concentration that gives 50% inhibition.

These data come from patent US6608082B1, “Treatment of erectile dysfunction using isoquinoline compound melanocortin receptor ligands” (Lion Bioscience AG, priority 1998, dated 2003).
